From patent US12391724B2, “Polypodoside sweet flavor modifier” (Firmenich Incorporated, priority 2019, dated 2025)

Columns and labels:
T1R2/T1R3 receptor = target: T1, T1R2/T1R3 receptor (Homo sapiens, UniProt Q7RTX0+Q8TE23); test: activation of the T1R2/T1R3 receptor; assay type: cell-based
T1 sequence (Q8TE23 20-839): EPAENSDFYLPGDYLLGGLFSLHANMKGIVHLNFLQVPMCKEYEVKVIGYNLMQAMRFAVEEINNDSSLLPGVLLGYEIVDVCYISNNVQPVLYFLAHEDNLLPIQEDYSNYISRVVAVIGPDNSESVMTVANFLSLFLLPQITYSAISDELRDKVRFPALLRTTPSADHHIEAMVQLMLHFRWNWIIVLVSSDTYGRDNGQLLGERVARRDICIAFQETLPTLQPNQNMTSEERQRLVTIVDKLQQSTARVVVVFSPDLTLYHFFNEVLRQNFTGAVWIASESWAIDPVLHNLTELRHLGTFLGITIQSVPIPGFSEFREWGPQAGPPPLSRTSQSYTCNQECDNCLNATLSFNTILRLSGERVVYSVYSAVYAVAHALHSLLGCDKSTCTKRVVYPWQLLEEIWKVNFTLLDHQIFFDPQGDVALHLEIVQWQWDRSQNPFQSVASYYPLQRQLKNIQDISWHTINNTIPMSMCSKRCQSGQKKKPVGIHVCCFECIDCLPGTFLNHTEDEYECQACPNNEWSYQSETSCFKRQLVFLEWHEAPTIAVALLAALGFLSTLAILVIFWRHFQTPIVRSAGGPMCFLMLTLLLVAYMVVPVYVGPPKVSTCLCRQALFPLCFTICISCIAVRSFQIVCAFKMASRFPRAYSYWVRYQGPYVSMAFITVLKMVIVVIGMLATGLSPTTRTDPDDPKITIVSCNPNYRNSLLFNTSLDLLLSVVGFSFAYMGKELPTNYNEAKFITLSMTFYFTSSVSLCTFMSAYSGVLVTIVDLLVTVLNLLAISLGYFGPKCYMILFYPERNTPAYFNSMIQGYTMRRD
T1 sequence (Q7RTX0 21-852): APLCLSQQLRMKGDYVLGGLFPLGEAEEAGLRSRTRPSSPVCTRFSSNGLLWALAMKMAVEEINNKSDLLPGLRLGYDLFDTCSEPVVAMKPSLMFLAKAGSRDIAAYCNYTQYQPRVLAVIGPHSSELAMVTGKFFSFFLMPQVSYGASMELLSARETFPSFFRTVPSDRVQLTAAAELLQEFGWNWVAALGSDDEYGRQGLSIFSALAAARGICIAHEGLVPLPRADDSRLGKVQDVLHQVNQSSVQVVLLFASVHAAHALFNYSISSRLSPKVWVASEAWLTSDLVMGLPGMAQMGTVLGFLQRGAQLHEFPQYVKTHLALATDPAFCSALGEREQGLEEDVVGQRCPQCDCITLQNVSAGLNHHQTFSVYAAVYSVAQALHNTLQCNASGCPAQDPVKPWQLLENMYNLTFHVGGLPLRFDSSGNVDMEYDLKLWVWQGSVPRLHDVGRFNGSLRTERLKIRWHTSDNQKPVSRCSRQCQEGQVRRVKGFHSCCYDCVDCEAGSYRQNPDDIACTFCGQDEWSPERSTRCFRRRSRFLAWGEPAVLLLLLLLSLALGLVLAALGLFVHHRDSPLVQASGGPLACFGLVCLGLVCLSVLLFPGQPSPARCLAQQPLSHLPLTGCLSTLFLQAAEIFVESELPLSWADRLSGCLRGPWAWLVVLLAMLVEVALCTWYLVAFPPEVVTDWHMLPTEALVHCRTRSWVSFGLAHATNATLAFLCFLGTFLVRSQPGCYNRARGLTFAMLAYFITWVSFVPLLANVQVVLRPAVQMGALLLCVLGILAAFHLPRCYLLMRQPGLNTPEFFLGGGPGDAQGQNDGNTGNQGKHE
Excerpt: The present isolated compounds have been tested and shown sweet taste modifying activities.

[1] = system: human panelists (sweetness); test: paired comparison (2-AFC) taste test for sweetness with human panelists; assay type: in vivo
Method: Test samples containing experimental compounds were presented in pairs to the human panelist and they were asked to determine which of the sample is sweeter. […] A group of 10-16 or more panelists participated in each test. Subjects refrained from eating or drinking (except water) for at least 1 hour prior to the test. Subjects rinsed with water several times to clean the mouth.
Taste tests were performed with sucrose or HFCS as the sweetener in the presence or absence of compound. A 0.2% stock solution of compound in water with sodium bicarbonate was prepared and then this stock solution was diluted in the final sample to achieve the targeted final concentration of compound. For the sample evaluated at pH 2.8 the pH of the solution is decreased to about pH 2.8 using citric acid. Taste samples were also prepared in a low sodium phosphate buffer (pH 7.1; “LSB”) lacking sucrose or HFCS to evaluate the taste of the compound alone. Low sodium phosphate buffer consists of 0.3 mM KCl, 0.5 mM Na2HPO4, and 0.175 mM KH2PO4. Sample volumes are usually 20 ml.
In one paired comparison test, the panelist was presented with two different samples and asked to identify the sample which is sweeter. The samples within a paired comparison test were presented in a randomized, counterbalanced order. Panelists had up to a 1 minute delay between taste tests to clear the mouth of any tastes.
Binomial probability tables were used to determine the probability of the correct number of responses occurring for each test at alpha=0.05
Paired comparison taste test for sweetness (0.25 mL sample size)

[2] = 4% sucrose vs 0% sucrose + 100 ppm compound, pH 7.1, total 36
[3] = 4% sucrose vs 0% sucrose + 125 ppm compound, pH 7.1, total 42
[4] = 4% sucrose vs 0% sucrose + 150 ppm compound, pH 7.1, total 36
[5] = 4% sucrose vs 0% sucrose + 87 ppm compound, LSB pH 7.1, total 42

COCC(C1CCC(C)C(OC2OC(C)C(O)C(O)C2O)O1)C1CCC2C3=CC(=O)C4CC(OC5OC(CO)C(O)C(O)C5O)CCC4(C)C3CCC21C (centres unmarked) [Polypodoside E]
EC50 (T1R2/T1R3 receptor): 18.4 µM

CC1CCC(C(C)C2CCC3C4=CC(=O)C5CC(OC6OC(CO)C(OC7OC(C)C(O)C(O)C7O)C(O)C6O)CCC5(C)C4CCC32C)OC1OC1OC(C)C(O)C(O)C1O (centres unmarked) [Polypodoside G]
EC50 (T1R2/T1R3 receptor): 18.7 µM

C=C1C[C@@]23CC[C@H]4[C@@](C)(CCC[C@@]4(C)C(=O)O[C@@H]4O[C@H](CO)[C@@H](O)[C@H](O)[C@H]4O)[C@@H]2CC[C@]1(O[C@@H]1O[C@H](CO)[C@@H](O)[C@H](O[C@@H]2O[C@H](CO)[C@@H](O)[C@H](O)[C@H]2O)[C@H]1O[C@@H]1O[C@H](CO)[C@@H](O)[C@H](O)[C@H]1O)C3 [Reb A, Rebaudioside A]
concentration equivalent to 4% sucrose ([1]; 2-AFC, pH 7.1): 125 ppm Reb A is equivalent to 4% sucrose. | Sample selected as sweeter by panelists: 0% Sucrose + Cmpd [1, 2]: 8 | Sample selected as sweeter by panelists: 4% Sucrose [1, 2]: 28 | Sample selected as sweeter by panelists: 0% Sucrose + Cmpd [1, 3]: 22 | Sample selected as sweeter by panelists: 4% Sucrose [1, 3]: 20 | Sample selected as sweeter by panelists: 0% Sucrose + Cmpd [1, 4]: 24 | Sample selected as sweeter by panelists: 4% Sucrose [1, 4]: 12

Polypodoside D
EC50 (T1R2/T1R3 receptor): 4.15 µM | Sample selected as sweeter by panelists: 0% Sucrose + Cmpd [1, 5]: 18 | Sample selected as sweeter by panelists: 4% Sucrose [1, 5]: 24 | sweetness of 4% Sucrose compared with the sample (in words) ([1]; 4% sucrose vs LSB + 87 ppm compound, pH ~7.1): not significantly different in sweetness | sweet taste and potency in sensory studies (in words) ([1]; compared with Rebaudioside A): has a sweet taste and demonstrates higher potency than Rebaudioside A
